Data as given in US20020036154A1, “Solid pharmaceutical dosage formulation of hydrophobic drugs” (priority 2000, published 2002).

Test: Dissolution profiles of hydrocortisone (CCN90306A) Accudep Cores (paddles, 75 rpm, distilled water)
Format: physicochemical
Conditions: 1 mg CCN90306A, vs control core, 75 rpm paddles, n=3, FIG. 7
Experimental: Accudep™ Cores were made as follows: Control Accudep™ Core: Sealed a 1 mg deposition of CCN90306A between two polymer sheets with the following composition: 45% HPMC, 45% HPC, 10% PEG.

SMILES: C[C@]12CCC(=O)C=C1CC[C@@H]1[C@@H]2[C@@H](O)C[C@@]2(C)[C@H]1CC[C@]2(O)C(=O)CO [CCN90306A, Hydrocortisone]
- dissolution at 20- and 30-minute sample points (Polysorbate 80 incorporated in film Accudep Core (20%)): faster dissolution
- dissolution at 20- and 30-minute sample points (SLS incorporated in film Accudep Core (20% SLS)): faster dissolution
